Test [1] concerns the target CDK2/Cyclin E (Homo sapiens, UniProt P24941). The test is described as follows: CDK2/Cyclin E biochemical phosphorylation assay (Caliper mobility shift). Conditions: apparent IC50; 1.0 mM ATP or ATP Km; 1.25 nM enzyme; 25° C.; read-out: CDK2/cyclin E1 IC50. In short, it runs like this: (§1)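 7.5 µM 5-FAM-QSPKKG-CONH2 peptide phosphorylated by CDK2/Cyclin E (1.25 nM) or GST-CDK1/Cyclin B1 (1.5 nM) at 1.0 mM ATP or ATP Km, in HEPES pH 7.5, MgCl2, Brij-35, DTT, 1% DMSO, 25 °C to 10–20% conversion. EDTA stop; Caliper mobility-shift readout; apparent IC50 from percent activity vs log concentration.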

For test [2], the target named is T1, CDK1/Cyclin B1, GST-tag (Homo sapiens, UniProt P06493).
T1 construct: GST
Description: CDK1/Cyclin B1 biochemical phosphorylation assay (Caliper mobility shift). The note with it: apparent IC50; 1.0 mM ATP or ATP Km; 1.5 nM enzyme; 25° C. The method, boiled down: as §1

A value given as a limit tells only on which side of the number the result lay.

T1 sequence (P06493 whole entry): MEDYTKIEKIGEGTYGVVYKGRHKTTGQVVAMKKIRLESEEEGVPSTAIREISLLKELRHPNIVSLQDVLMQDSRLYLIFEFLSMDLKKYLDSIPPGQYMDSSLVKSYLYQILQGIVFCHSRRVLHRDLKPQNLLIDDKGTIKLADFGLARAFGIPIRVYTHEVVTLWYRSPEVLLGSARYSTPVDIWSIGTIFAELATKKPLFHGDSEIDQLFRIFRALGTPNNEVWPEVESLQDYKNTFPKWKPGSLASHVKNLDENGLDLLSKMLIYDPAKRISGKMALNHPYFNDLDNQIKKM
T1 sequence (P14635 whole entry partner): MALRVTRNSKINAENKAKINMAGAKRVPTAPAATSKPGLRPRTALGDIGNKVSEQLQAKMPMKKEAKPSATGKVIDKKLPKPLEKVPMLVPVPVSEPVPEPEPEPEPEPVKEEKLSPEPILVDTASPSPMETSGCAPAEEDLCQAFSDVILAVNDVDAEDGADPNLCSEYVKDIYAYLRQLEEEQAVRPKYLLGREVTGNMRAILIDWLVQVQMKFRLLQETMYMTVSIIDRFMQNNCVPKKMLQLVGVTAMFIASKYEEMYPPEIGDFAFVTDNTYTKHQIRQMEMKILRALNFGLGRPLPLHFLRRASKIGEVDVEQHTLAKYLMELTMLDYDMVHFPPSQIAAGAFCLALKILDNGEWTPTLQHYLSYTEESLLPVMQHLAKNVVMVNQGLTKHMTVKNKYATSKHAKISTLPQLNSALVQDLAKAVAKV

For `C[C@@H](c1cc(Cl)ccn1)n1ncc2ncc(Nc3cc(OC(F)F)[nH]n3)nc21` (single isomer, unassigned) [Example 189, (R)-1-(1-(4-chloropyridin-2-yl)ethyl)-N-(5-(difluoromethoxy)-1H-pyrazol-3-yl)-1H-pyrazolo[3,4-b]pyrazin-6-amine or (S)-1-(1-(4-chloropyridin-2-yl)ethyl)-N-(5-(difluoromethoxy)-1H-pyrazol-3-yl)-1H-pyrazolo[3,4-b]pyrazin-6-amine], the IC50 is more than 100 nM in test [1] and not below 500 nM in test [2].

Turning to `C[C@H](c1cc(F)ccn1)n1ncc2ncc(Nc3cc(OC(F)F)[nH]n3)nc21` (single isomer, unassigned) [Example 14, (R)—N-(5-(difluoromethoxy)-1H-pyrazol-3-yl)-1-(1-(4-fluoropyridin-2-yl)ethyl)-1H-pyrazolo[3,4-b]pyrazin-6-amine or (S)—N-(5-(difluoromethoxy)-1H-pyrazol-3-yl)-1-(1-(4-fluoropyridin-2-yl)ethyl)-1H-pyrazolo[3,4-b]pyrazin-6-amine], the IC50 in test [1] is 10 to 20 nM; in test [2], not below 500 nM.

As to `O[C@H]1CC[C@@H](n2ncc3ncc(Nc4cc(OC(F)F)[nH]n4)nc32)C1` (single isomer, unassigned) [Example 210], the IC50 was more than 100 nM in test [1] and not below 500 nM in test [2].

Turning to `CC(C)(C1CC1)n1ncc2ncc(Nc3cc(OC(F)F)[nH]n3)nc21` [Example 23, 1-(2-cyclopropylpropan-2-yl)-N-(5-(difluoromethoxy)-1H-pyrazol-3-yl)-1H-pyrazolo[3,4-b]pyrazin-6-amine], the IC50 in test [1] is not above 10 nM; in test [2], 100 to 500 nM.

In the case of `C[C@@H](c1cncc(F)c1)n1ncc2ncc(Nc3cc(OC(F)F)[nH]n3)nc21` (single isomer, unassigned) [Example 154, (R)-N-(5-(difluoromethoxy)-1H-pyrazol-3-yl)-1-(1-(5-fluoropyridin-3-yl)ethyl)-1H-pyrazolo[3,4-b]pyrazin-6-amine or (S)-N-(5-(difluoromethoxy)-1H-pyrazol-3-yl)-1-(1-(5-fluoropyridin-3-yl)ethyl)-1H-pyrazolo[3,4-b]pyrazin-6-amine], the figures for the IC50 in test [1] and in test [2] were 20 to 30 nM and not below 500 nM, respectively.

As for `FC(F)Oc1cc(Nc2cnc3cnn(Cc4nccs4)c3n2)n[nH]1` [Example 54, N-(5-(difluoromethoxy)-1H-pyrazol-3-yl)-1-(thiazol-2-ylmethyl)-1H-pyrazolo[3,4-b]pyrazin-6-amine], the IC50 in test [1] was 30 to 100 nM; in test [2], not below 500 nM.

In the case of `COc1cc(Nc2cnc3cnn(Cc4cccnc4F)c3n2)n[nH]1` [Example 137, 1-((2-fluoropyridin-3-yl)methyl)-N-(5-methoxy-1H-pyrazol-3-yl)-1H-pyrazolo[3,4-b]pyrazin-6-amine], the IC50 in test [1] is not above 10 nM; in test [2] it was 100 to 500 nM.

As to `FC(F)Oc1cc(Nc2cnc3cnn(C[C@@]4(F)CCOC4)c3n2)n[nH]1` (single isomer, unassigned) [Example 167, (S)-N-(5-(difluoromethoxy)-1H-pyrazol-3-yl)-1-((3-fluorotetrahydrofuran-3-yl)methyl)-1H-pyrazolo[3,4-b]pyrazin-6-amine or (R)-N-(5-(difluoromethoxy)-1H-pyrazol-3-yl)-1-((3-fluorotetrahydrofuran-3-yl)methyl)-1H-pyrazolo[3,4-b]pyrazin-6-amine], the results for the IC50 in test [1] and in test [2] were 20 to 30 nM and not below 500 nM, respectively.

In the case of `C[C@@H](CCO)n1ncc2ncc(Nc3cc(OC(F)F)[nH]n3)nc21` (single isomer, unassigned) [Example 205, (S)-3-(6-((5-(difluoromethoxy)-1H-pyrazol-3-yl)amino)-1H-pyrazolo[3,4-b]pyrazin-1-yl)butan-1-ol or (R)-3-(6-((5-(difluoromethoxy)-1H-pyrazol-3-yl)amino)-1H-pyrazolo[3,4-b]pyrazin-1-yl)butan-1-ol], the figures for the IC50 in test [1] and in test [2] were 30 to 100 nM and not below 500 nM, respectively.

As for `N#CCC1(Cn2ncc3ncc(Nc4cc(OC(F)F)[nH]n4)nc32)CC1` [Example 132, 2-(1-((6-((5-(difluoromethoxy)-1H-pyrazol-3-yl)amino)-1H-pyrazolo[3,4-b]pyrazin-1-yl)methyl)cyclopropyl)acetonitrile], the IC50 was 30 to 100 nM in test [1] and not below 500 nM in test [2].

Regarding `C[C@@H](O)c1nn(CC2CCOCC2)c2nc(Nc3cc(OC(F)F)[nH]n3)cnc12` (single isomer, unassigned) [Example 176, (S)-1-(6-((5-(difluoromethoxy)-1H-pyrazol-3-yl)amino)-1-((tetrahydro-2H-pyran-4-yl)methyl)-1H-pyrazolo[3,4-b]pyrazin-3-yl)ethan-1-ol or (R)-1-(6-((5-(difluoromethoxy)-1H-pyrazol-3-yl)amino)-1-((tetrahydro-2H-pyran-4-yl)methyl)-1H-pyrazolo[3,4-b]pyrazin-3-yl)ethan-1-ol], the IC50 in test [1] is not above 10 nM; in test [2], 100 to 500 nM.

For the compound `COc1cc(Nc2cnc3cnn([C@@H](C)c4cc(F)ccn4)c3n2)n[nH]1` (single isomer, unassigned) [Example 186, (S)-1-(1-(4-fluoropyridin-2-yl)ethyl)-N-(5-methoxy-1H-pyrazol-3-yl)-1H-pyrazolo[3,4-b]pyrazin-6-amine or (R)-1-(1-(4-fluoropyridin-2-yl)ethyl)-N-(5-methoxy-1H-pyrazol-3-yl)-1H-pyrazolo[3,4-b]pyrazin-6-amine], the IC50 is 10 to 20 nM in test [1] and not below 500 nM in test [2].

In the case of `O[C@H]1CC[C@@H](Cn2ncc3ncc(Nc4cc(OC(F)F)[nH]n4)nc32)CC1` (single isomer, unassigned) [Example 172, (1r,4r)-4-((6-((5-(difluoromethoxy)-1H-pyrazol-3-yl)amino)-1H-pyrazolo[3,4-b]pyrazin-1-yl)methyl)cyclohexan-1-ol or (1s,4s)-4-((6-((5-(difluoromethoxy)-1H-pyrazol-3-yl)amino)-1H-pyrazolo[3,4-b]pyrazin-1-yl)methyl)cyclohexan-1-ol], the IC50 in test [1] was 10 to 20 nM; in test [2] it was not below 500 nM.

For `FC(F)Oc1cc(Nc2cnc3cnn(CC4CCC(F)(F)CC4)c3n2)n[nH]1` [Example 108, 1-((4,4-difluorocyclohexyl)methyl)-N-(5-(difluoromethoxy)-1H-pyrazol-3-yl)-1H-pyrazolo[3,4-b]pyrazin-6-amine], the values for the IC50 in test [1] and in test [2] were not above 10 nM and not below 500 nM, respectively.

Consider `C[C@@H](c1cccnc1)n1nc(Cl)c2ncc(Nc3cc(OC(F)F)[nH]n3)nc21` [Example 61, (S)-3-chloro-N-(5-(difluoromethoxy)-1H-pyrazol-3-yl)-1-(1-(pyridin-3-yl)ethyl)-1H-pyrazolo[3,4-b]pyrazin-6-amine], for which the IC50 in test [1] is not above 10 nM; in test [2], not below 500 nM.

As to `COc1cc(Nc2cnc3cnn(C[C@H]4C[C@@H]4C#N)c3n2)n[nH]1` (single isomer, unassigned) [Example 197, (1R,2R)-2-((6-((5-methoxy-1H-pyrazol-3-yl)amino)-1H-pyrazolo[3,4-b]pyrazin-1-yl)methyl)cyclopropane-1-carbonitrile or (1S,2S)-2-((6-((5-methoxy-1H-pyrazol-3-yl)amino)-1H-pyrazolo[3,4-b]pyrazin-1-yl)methyl)cyclopropane-1-carbonitrile], the IC50 in test [1] is 20 to 30 nM; in test [2], not below 500 nM.

Consider `FC(F)Oc1cc(Nc2cnc3cnn(Cc4cnccn4)c3n2)n[nH]1` [Example 223, N-(5-(difluoromethoxy)-1H-pyrazol-3-yl)-1-(pyrazin-2-ylmethyl)-1H-pyrazolo[3,4-b]pyrazin-6-amine], for which the results for the IC50 in test [1] and in test [2] were 20 to 30 nM and not below 500 nM, respectively.

With `FC(F)Oc1cc(Nc2cnc3cnn(CC4CCCC4)c3n2)n[nH]1` [Example 104, 1-(cyclopentylmethyl)-N-(5-(difluoromethoxy)-1H-pyrazol-3-yl)-1H-pyrazolo[3,4-b]pyrazin-6-amine], the figures for the IC50 in test [1] and in test [2] were not above 10 nM and 100 to 500 nM, respectively.

Turning to `FC(F)Oc1cc(Nc2cnc3cnn(CC4CCOCC4)c3n2)n[nH]1` [Example 2, N-(5-(difluoromethoxy)-1H-pyrazol-3-yl)-1-((tetrahydro-2H-pyran-4-yl)methyl)-1H-pyrazolo[3,4-b]pyrazin-6-amine], the figures for the IC50 in test [1] and in test [2] were not above 10 nM and 100 to 500 nM, respectively.

Turning to `CC1(Cn2ncc3ncc(Nc4cc(OC(F)F)[nH]n4)nc32)COC1` [Example 119, N-(5-(difluoromethoxy)-1H-pyrazol-3-yl)-1-((3-methyloxetan-3-yl)methyl)-1H-pyrazolo[3,4-b]pyrazin-6-amine], the IC50 is not above 10 nM in test [1] and not below 500 nM in test [2].

For `Fc1nn(CC2CCOCC2)c2nc(Nc3cc(OC(F)F)[nH]n3)cnc12` [Example 117, N-(5-(difluoromethoxy)-1H-pyrazol-3-yl)-3-fluoro-1-((tetrahydro-2H-pyran-4-yl)methyl)-1H-pyrazolo[3,4-b]pyrazin-6-amine], the IC50 in test [1] is not above 10 nM; in test [2], 100 to 500 nM.

With `FC(F)Oc1cc(Nc2cnc3cnn(CC4CCC4)c3n2)n[nH]1` [Example 101, 1-(cyclobutylmethyl)-N-(5-(difluoromethoxy)-1H-pyrazol-3-yl)-1H-pyrazolo[3,4-b]pyrazin-6-amine], the IC50 was not above 10 nM in test [1] and 100 to 500 nM in test [2].

With `FC(F)Oc1cc(Nc2cnc3cnn(C[C@@H]4CC4(F)F)c3n2)n[nH]1` (single isomer, unassigned) [Example 164, (R)-1-((2,2-difluorocyclopropyl)methyl)-N-(5-(difluoromethoxy)-1H-pyrazol-3-yl)-1H-pyrazolo[3,4-b]pyrazin-6-amine or (S)-1-((2,2-difluorocyclopropyl)methyl)-N-(5-(difluoromethoxy)-1H-pyrazol-3-yl)-1H-pyrazolo[3,4-b]pyrazin-6-amine], the IC50 in test [1] is 10 to 20 nM; in test [2], not below 500 nM.
